Experimental data from paper PMC3183052, “Immunoprotectivity of HLA-A2 CTL Peptides Derived from Respiratory Syncytial Virus Fusion Protein in HLA-A2 Transgenic Mouse” (PLoS ONE, 2011).
Entries after “also recorded” stand apart in the source; their conditions may differ.

Experiments:
RSV-B1 [1] = assay: Lung viral load after live RSV challenge (real-time RT-PCR of RSV N gene); assay type: in vivo, HLA-A*0201 transgenic C57BL/6 mice; settings: two s.c. doses of 50 µg peptide in IFA, challenge i.n. 1×10^7 pfu live RSV-B1, day 4 post-infection; 10 mice per group; vehicle mean = 0.95
Protocol: (§1) To screen the immunodominance of epitopic peptide in the induction of RSV-F specific Th1/Th2 expression, HLA-A*0201 transgenic C57BL/6 mice were anesthetized with isoflurane and immunized with 1×10^7 pfu/50 µL of rAd-F0 or rAd-LacZ or 1×10^4 live RSV B1 via the intranasal (i.n.) route. Twenty days later, the mice were given booster immunization i.n. with the same dose. After 10 days of boost, mice were sacrificed and splenocytes were isolated for the cytokine ELISPOT assay. […] Mice body weight was monitored daily.
(§2) Lung RNA (5 µg) was mixed with 10 nmole random primers and 2 units of […] reverse transcriptase (Invitrogen) and incubated at 94°C for 10 minutes, 37°C for 30 minutes, and then at 4°C. The resulting cDNA was subjected to quantitative PCR analysis (The LightCycler® 480 Real-Time PCR system) with RSV N specific primer pairs, forward: 5′-[…]-3′ and reverse: 5′-[…]-3′. Expression of mouse GAPDH gene in the tested samples was detected as internal control by using specific primer pairs, forward: 5′-[…]-3′ and reverse: 5′-[…]-3′. The number of cycles (Ct) required for the amplification of the N gene and GAPDH was calculated. The relative expression of the N gene was calculated as followed: the individual Ct (RSV N) obtained from peptide- or vehicle-immunized lung was normalized by the respective Ct (GAPDH), and then [drawing 3] was divided by the mean of [drawing 4] . […]

RSV-B1 [2] = assay: Body weight after live RSV challenge; assay type: in vivo, HLA-A*0201 transgenic C57BL/6 mice; settings: peptide-immunized HLA-Tg B6 mice, 10^7 pfu live RSV-B1 i.n.; weight recorded daily for 9 days
Protocol: as §1, with “assay. For peptide-based vaccination, transgenic mice were immunized subcutaneously (s.c.) with 50 µg of the individual synthetic peptides emulsified in 25 µL of incomplete Freund's adjuvant (IFA) (Sigma-Aldrich) and then boosted after 10 days s.c. with the same dose of the respective peptides mixed with IFA. Mice were sacrificed 7 days after the booster and splenocytes were isolated for in vitro peptide-restimulation.” for “assay.”
Figure 3 Determination of lung viral load and gain of lost body weight. […] (A) The viral load in the lungs of individual mice was determined 4 days after challenge by real-time RT-PCR to quantitate RSV N gene expression as described in the Materials and Methods. […] (B) The body weight of each mouse was recorded daily for 9 days after virus challenge. Results are expressed as % (mean) for 5 mice in each experimental group. […]

IL-13 = assay: Lung IL-13 expression by real-time RT-PCR after RSV challenge; assay type: in vivo, mouse; settings: peptide in IFA s.c. twice, day 4 post challenge, normalized to GAPDH, six mice per group
Protocol: as §1, §2

lung eosinophils = assay: Eosinophil infiltration into the lungs (anti-MBP immunohistochemistry); assay type: in vivo, HLA-A*0201 transgenic C57BL/6 mice; settings: day 4 post RSV challenge; anti-MBP staining, 20 fields at 200×; six mice per group
Text: Whole lungs were excised from the mice, fixed in 10% formalin (Sigma-Aldrich) solution overnight and embedded in paraffin (Thermo Fisher Scientific) for sectioning. The sections were stained with rat monoclonal anti-major basic protein (MBP) antibody (1∶500 dilution, gifted from Dr. James J. Lee, Mayo Clinic, AZ, USA) followed by the appropriate secondary antibodies. Twenty-bright field microscopy pictures (Nikon DXM1200 CCD digital camera attached with ACT-1 imaging capture software) from each stained section were taken at 200× magnifications and the number of eosinophils was counted. The mean of eosinophil count from each section was calculated.
Figure 6 Eosinophil infiltration into the lungs of peptide-immunized transgenic mice upon RSV challenge. Immunohistochemical analysis of lung sections with anti-major basic protein antibody specific for eosinophils followed by the HRP-conjugated anti-rat antibody was performed. (A) Pictures from the section of normal mouse lung (a), or vehicle- (b), peptide 3- (c), 13- (d), 14- (e) and 23- (f) immunized mouse lung section. (B) Quantitative representation of eosinophil count per section of peptide- or vehicle-immunized HLA-transgenic mice at day 4 post RSV challenge. Twenty bright field pictures from each lung mesenchymal region were examined and the number of eosinophils was counted under 200× magnification. […]

YMLTNSELL [peptide 14, HLA-A*0201-restricted 9-mer synthetic peptide from F protein of RSV-B1 strain]
expression of RSV N gene in the lungs (relative, normalized to GAPDH), mean (RSV-B1 [1]): no significant reduction; also recorded: reduced lung viral load only marginally | recovery of body weight loss (in words) (RSV-B1 [2]): recovered only in the last two days | lung IL-13 expression vs vehicle (IL-13): normal expression | eosinophil numbers in the lungs vs vehicle-immunized mice (lung eosinophils): comparable eosinophil numbers
